# System: T-cell proliferation in canine whole blood (ConA and canine IL-2 stimulated)
# Assay: Canine in vitro T-cell Proliferation Assay
# Type: cell-based, beagle dogs
# Settings: Canis lupus familiaris, ConA 1 μg/ml + canine IL-2 50 ng/ml, tritiated thymidine incorporation, average assay results
# Experimental: Introduction: T-cell activation plays a key role in a variety of inflammatory and autoimmune disorders as well as asthma, allergies and pruritus. Since T-cell activation can, in part, can be triggered by cytokines that signal through the JAK-STAT pathway, a JAK inhibitor could be effective against such diseases involving aberrant T-cell activation. […] Methods: Canine whole blood is collected in heparin sulfate tubes from beagle dogs. Whole blood (20 μL) is plated in 96-well plates (Costar) with 180 μL of DMEM complete medium (Dublecco's Modified Eagle Medium; 10% heat inactivated fetal bovine serum; 100 u/ml penicillin; 100 ug/mL streptomycin, from Gibco) containing vehicle control or test compound (0.001 to 10 μM), concanavalin A (ConA; 1 μg/ml), and canine interleukin-2 (IL-2; 50 ng/ml). Wells containing whole blood, medium with vehicle control and no ConA or IL-2 are used as background (BKG) controls. Plates are incubated at 37° C. for 48 hrs. Tritiated thymidine, 0.4 μCi/well (Perkin Elmer), is added for 20 additional hours. Plates are frozen and then thawed, washed and filtered using a Brandel MLR-96 cell harvester and prewet filter mats (Wallac 1205-401, Perkin Elmer). Filters are dried at 60° C. for one hour (Precision 16EG convection oven) and placed into filter sample bags (Wallac 1205-411, Perkin Elmer) with 10 mL of scintillant (Wallac 1205-440, Perkin Elmer). Sealed filters are counted on a LKB Wallac 1205 Betaplate liquid scintillation counter. Data are collected via Gterm Betaplate program v1.1 (Wallac copyright 1989-1990) and transformed into percent inhibition, calculated using the following formula: […]
row,Structure (SMILES),IC50
1,"C[C@@H]1CCN(C(=O)Nc2nncs2)C[C@@H]1N(C)c1ncnc2[nH]ccc12 [Example 1, (3R,4R)-4-methyl-3-[methyl(7H-pyrrolo[2,3-d]pyrimidin-4-yl)amino]-N-(1,3,4-thiadiazol-2-yl)piperidine-1-carboxamide]",28.5 nM
2,"COc1nsc(NC(=O)N2CC[C@@H](C)[C@@H](N(C)c3ncnc4[nH]ccc34)C2)n1 [Example 2, (3R,4R)-N-(3-methoxy-1,2,4-thiadiazol-5-yl)-4-methyl-3-[methyl(7H-pyrrolo[2,3-d]pyrimidin-4-yl)amino]piperidine-1-carboxamide]",50 nM
3,"Cc1noc(NC(=O)N2CC[C@@H](C)[C@@H](N(C)c3ncnc4[nH]ccc34)C2)c1C#N [Example 3, (3R,4R)-N-(4-cyano-3-methylisoxazol-5-yl)-4-methyl-3-[methyl(7H-pyrrolo[2,3-d]pyrimidin-4-yl)amino]piperidine-1-carboxamide]",> 10000 nM
4,"CSc1nc(NC(=O)N2CC[C@@H](C)[C@@H](N(C)c3ncnc4[nH]ccc34)C2)n(C)n1 [Example 4, (3R,4R)-4-methyl-N-[1-methyl-3-(methylsulfanyl)-1H-1,2,4-triazol-5-yl]-3-[methyl(7H-pyrrolo[2,3-d]pyrimidin-4-yl)amino]piperidine-1-carboxamide]",> 10000 nM
